This is an account of results in paper PMC6612245 (Journal of the American Chemical Society, 2019).

Each structure is given as a SMILES string.

Holding throughout (type): biochemical
Test [1] concerns the target T1, EcPurH (Escherichia coli, UniProt P15639). In words: HPLC. To be noted: cyclization to 7a.
The target in test [2] is T2, ForH (Streptomyces kaniharaensis, UniProt A0A4V8H038). The test can be described thus: HPLC of product 7a. To be noted: cyclization to 7a; 10 min incubation.
Test [3] addresses T3, ForC (Streptomyces kaniharaensis, UniProt A0A5S9FY43).
T3 sequence (A0A5S9FY43 1-333): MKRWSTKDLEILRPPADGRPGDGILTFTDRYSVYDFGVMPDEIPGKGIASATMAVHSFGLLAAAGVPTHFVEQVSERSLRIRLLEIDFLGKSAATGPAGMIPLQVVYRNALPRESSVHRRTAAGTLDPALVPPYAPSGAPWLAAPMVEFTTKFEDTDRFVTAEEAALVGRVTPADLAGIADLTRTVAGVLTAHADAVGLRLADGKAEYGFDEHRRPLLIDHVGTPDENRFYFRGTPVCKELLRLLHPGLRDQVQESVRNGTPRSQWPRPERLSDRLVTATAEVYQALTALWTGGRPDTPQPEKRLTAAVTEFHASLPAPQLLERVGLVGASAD
In words: anion exchange HPLC, substrate consumption. To be noted: L-aspartate and ATP; 4 h.

Test [4] addresses T2, ForH. The test can be described thus: HPLC of product 7b. To be noted: cyclization to 7b; 10 min incubation.
Test [5] concerns the target T1, EcPurH. In words: enzymatic preparation of 6b. As to conditions: formylation to 6b.
The target in test [6] is T4, SkPurH (Streptomyces kaniharaensis, UniProt A0A6N7KQI7).
T4 sequence (A0A6N7KQI7 24-525): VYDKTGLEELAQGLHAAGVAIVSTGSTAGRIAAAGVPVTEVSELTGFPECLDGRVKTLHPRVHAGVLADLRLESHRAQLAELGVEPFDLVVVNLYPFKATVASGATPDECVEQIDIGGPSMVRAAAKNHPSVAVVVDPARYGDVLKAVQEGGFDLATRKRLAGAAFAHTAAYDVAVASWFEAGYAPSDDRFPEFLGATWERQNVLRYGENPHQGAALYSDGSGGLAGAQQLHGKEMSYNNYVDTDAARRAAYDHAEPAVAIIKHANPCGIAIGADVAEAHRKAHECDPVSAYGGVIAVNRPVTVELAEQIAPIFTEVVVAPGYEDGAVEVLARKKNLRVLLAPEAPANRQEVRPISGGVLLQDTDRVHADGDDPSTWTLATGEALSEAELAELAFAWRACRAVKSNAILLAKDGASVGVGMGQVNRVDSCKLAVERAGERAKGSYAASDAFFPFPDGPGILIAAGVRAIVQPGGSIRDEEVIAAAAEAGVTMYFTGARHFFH
The test can be described thus: HPLC of product 6b. As to conditions: N10-formyl-THF; formylation without cyclization; 1 h.

T1 sequence (P15639 whole entry): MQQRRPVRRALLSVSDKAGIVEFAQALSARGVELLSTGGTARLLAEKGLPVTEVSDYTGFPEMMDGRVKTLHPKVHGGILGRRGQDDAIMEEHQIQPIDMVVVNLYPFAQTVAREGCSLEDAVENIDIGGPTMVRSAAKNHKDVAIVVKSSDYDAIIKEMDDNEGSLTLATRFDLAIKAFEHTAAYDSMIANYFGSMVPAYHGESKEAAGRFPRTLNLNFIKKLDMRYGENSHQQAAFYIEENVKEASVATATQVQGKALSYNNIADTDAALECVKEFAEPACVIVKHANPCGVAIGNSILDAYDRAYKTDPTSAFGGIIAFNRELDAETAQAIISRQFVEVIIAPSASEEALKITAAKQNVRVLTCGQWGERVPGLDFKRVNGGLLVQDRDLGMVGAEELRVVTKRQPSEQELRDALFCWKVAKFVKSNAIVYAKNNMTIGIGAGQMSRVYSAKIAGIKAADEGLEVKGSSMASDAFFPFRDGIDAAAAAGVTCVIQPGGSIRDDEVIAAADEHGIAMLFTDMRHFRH

For `NC(=O)c1ncn([C@@H]2O[C@H](COP(=O)(O)O)[C@@H](O)[C@H]2O)c1NC=O` [6a], in test [1], the “HPLC (supplement)” value was 6a could be processed to 7a, while 6b could not be converted to 7b. The “HPLC of product 7a” value in test [2] is “ForH demonstrates cyclase activity towards both 6a and 6b”. For the compound `Nc1c([C@@H]2O[C@H](COP(=O)(O)O)[C@@H](O)[C@H]2O)n[nH]c1C(=O)O` [3b], the “anion exchange HPLC, substrate consumption” value in test [3] is “Incubation of 3b with ForC along with L-aspartate and ATP led to the production”. Turning to `NC(=O)c1[nH]nc([C@@H]2O[C@H](COP(=O)(O)O)[C@@H](O)[C@H]2O)c1NC=O` [6b], the “HPLC of product 7b” value in test [4] is “ForH demonstrates cyclase activity towards both 6a and 6b”. Consider `NC(=O)c1[nH]nc([C@@H]2O[C@H](COP(=O)(O)O)[C@@H](O)[C@H]2O)c1N` [5b], for which the “enzymatic preparation of 6b” value in test [5] was 6b was enzymatically prepared from 5b using E. coli PurH as the catalyst. Besides, the “HPLC of product 6b” value in test [6] is recorded as “incubation of 5b with S. kaniharaensis PurH (SkPurH) resulted in formylation of the pyrazolic amide”.
